Measurements taken from the CheMixHub viscosity set.

Experiment: xn = mol fraction of the nth substance listed

C=C(C)[C@@H]1CC=C(C)CC1 + CC12CCC(CC1)C(C)(C)O2
viscosity [mPa·s], 101.33 kPa
Conditions | 298.15 K | 313.15 K
x1 = 0.0715 | 2.345 | 1.741
x1 = 0.1121 | 2.23 | 1.664
x1 = 0.2018 | 1.995 | 1.504
x1 = 0.327 | 1.704 | 1.305
x1 = 0.4614 | 1.439 | 1.123
x1 = 0.5584 | 1.279 | 1.011
x1 = 0.6401 | 1.162 | 0.929
x1 = 0.7336 | 1.05 | 0.851
x1 = 0.8226 | 0.963 | 0.785
x1 = 0.8648 | 0.928 | 0.759
x1 = 0.9499 | 0.872 | 0.716

CCCCCCO + CC#N
viscosity [mPa·s], 101 kPa
Conditions | 298.15 K | 303.15 K | 308.15 K
x2 = 0.1095 | 3.187 | 2.576 | 2.165
x2 = 0.2173 | 2.358 | 2.078 | 1.839
x2 = 0.2885 | 1.966 | 1.831 | 1.573
x2 = 0.3844 | 1.55 | 1.386 | 1.233
x2 = 0.5121 | 1.109 | 1.004 | 0.913
x2 = 0.627 | 0.84 | 0.766 | 0.704
x2 = 0.7147 | 0.676 | 0.611 | 0.57
x2 = 0.7903 | 0.545 | 0.513 | 0.483
x2 = 0.8533 | 0.47 | 0.445 | 0.419
x2 = 0.9086 | 0.415 | 0.395 | 0.376
x2 = 0.9558 | 0.377 | 0.36 | 0.343

O=C1CCCCC1 + CC(=O)N(C)C
viscosity [mPa·s], 101 kPa
Conditions | 298.15 K | 308.15 K | 318.15 K
x1 = 0.1 | 1.024 | 0.873 | 0.75
x1 = 0.2001 | 1.095 | 0.907 | 0.76
x1 = 0.3001 | 1.182 | 0.956 | 0.782
x1 = 0.4001 | 1.28 | 1.018 | 0.823
x1 = 0.45 | 1.334 | 1.058 | 0.849
x1 = 0.4999 | 1.391 | 1.099 | 0.882
x1 = 0.5501 | 1.454 | 1.147 | 0.922
x1 = 0.5991 | 1.518 | 1.196 | 0.962
x1 = 0.7015 | 1.66 | 1.322 | 1.071
x1 = 0.7499 | 1.731 | 1.387 | 1.134
x1 = 0.7984 | 1.805 | 1.454 | 1.199
x1 = 0.8997 | 1.969 | 1.615 | 1.348

CC(=O)CC(C)C + CC(=O)O
viscosity [mPa·s]
Conditions | 293.15 K | 298.15 K | 308.15 K | 318.15 K
101.32 kPa, x1 = 0.048 | 1.179 | 1.085 | 0.9387 | 0.82
101.32 kPa, x1 = 0.102 | – | – | – | 0.7844
101.32 kPa, x1 = 0.103 | 1.122 | 1.037 | 0.8955 | –
101.32 kPa, x1 = 0.164 | 1.065 | 0.9866 | 0.8505 | 0.7456
101.32 kPa, x1 = 0.233 | – | – | – | 0.708
101.32 kPa, x1 = 0.234 | 1.004 | 0.9325 | 0.803 | –
101.32 kPa, x1 = 0.313 | – | – | – | 0.6696
101.32 kPa, x1 = 0.314 | 0.9417 | 0.8743 | 0.7592 | –
101.32 kPa, x1 = 0.405 | – | – | – | 0.6271
101.32 kPa, x1 = 0.406 | 0.8773 | 0.8108 | 0.7072 | –
101.32 kPa, x1 = 0.514 | 0.8105 | 0.752 | 0.6636 | 0.5844
101.32 kPa, x1 = 0.646 | – | – | – | 0.5401
101.32 kPa, x1 = 0.647 | 0.7427 | 0.688 | 0.6078 | –
101.32 kPa, x1 = 0.805 | – | 0.6272 | 0.5546 | 0.4944
101.32 kPa, x1 = 0.806 | 0.6691 | – | – | –
101.33 kPa, x1 = 0.048 | 1.179 | 1.085 | 0.9387 | 0.82
101.33 kPa, x1 = 0.102 | – | – | – | 0.7844
101.33 kPa, x1 = 0.103 | 1.122 | 1.037 | 0.8955 | –
101.33 kPa, x1 = 0.164 | 1.065 | 0.9866 | 0.8505 | 0.7456
101.33 kPa, x1 = 0.233 | – | – | – | 0.708
101.33 kPa, x1 = 0.234 | 1.004 | 0.9325 | 0.803 | –
101.33 kPa, x1 = 0.313 | – | – | – | 0.6696
101.33 kPa, x1 = 0.314 | 0.9417 | 0.8743 | 0.7592 | –
101.33 kPa, x1 = 0.405 | – | – | – | 0.6271
101.33 kPa, x1 = 0.406 | 0.8773 | 0.8108 | 0.7072 | –
101.33 kPa, x1 = 0.514 | 0.8105 | 0.752 | 0.6636 | 0.5844
101.33 kPa, x1 = 0.646 | – | – | – | 0.5401
101.33 kPa, x1 = 0.647 | 0.7427 | 0.688 | 0.6078 | –
101.33 kPa, x1 = 0.805 | – | 0.6272 | 0.5546 | 0.4944
101.33 kPa, x1 = 0.806 | 0.6691 | – | – | –

CCOCC + CC(=O)O
viscosity [mPa·s], 101 kPa
Conditions | x2 = 0.124 | x2 = 0.2575 | x2 = 0.5649 | x2 = 0.6393 | x2 = 0.749 | x2 = 0.9116
293.15 K | 0.3184 | 0.3737 | 0.5451 | 0.6641 | – | 1.048
303.15 K | 0.2837 | 0.3354 | 0.483 | 0.5903 | 0.7376 | 0.8999
313.15 K | – | 0.3088 | – | 0.5215 | 0.6621 | 0.791
323.15 K | – | – | 0.3937 | 0.4665 | 0.5877 | 0.6835

CC(=O)CC(C)C + CC(C)=O
298.15 K, 101 kPa
Conditions | viscosity [mPa·s]
x2 = 0.0872 | 0.5206
x2 = 0.2689 | 0.474
x2 = 0.3526 | 0.4524
x2 = 0.359 | 0.45
x2 = 0.5077 | 0.4139
x2 = 0.7067 | 0.366
x2 = 0.7731 | 0.3515
x2 = 0.8344 | 0.3373
x2 = 0.835 | 0.3362
x2 = 0.9323 | 0.3141
